Results reported in patent US20190038714A1, “ANTI-INFLAMMATORY COMPOSITION COMPRISING CLAVASPIRIN PEPTIDE ANALOGUE AS EFFECTIVE INGREDIENT” (INDUSTRY-ACADEMIC COOPERATION FOUNDATION, CHOSUN UNIVERSITY, priority 2015, published 2019).
≈ marks a conversion by molar mass, not a printed value. Like-named read-outs stand apart in the source and are kept apart here.

Experiments:
S. aureus [1] = assay: microbe, parasite or virus in culture; details: Staphylococcus aureus, 24 h
S. aureus MRSA 3126 [2] = assay: microbe, parasite or virus in culture; details: Staphylococcus aureus, 24 h
S. aureus MRSA 0027 [3] = assay: microbe, parasite or virus in culture; details: Staphylococcus aureus, 24 h
S. aureus MRSA 5157 [4] = assay: microbe, parasite or virus in culture; details: Staphylococcus aureus, 24 h
S. aureus MRSA 1635 [5] = assay: microbe, parasite or virus in culture; details: Staphylococcus aureus, 24 h
S. aureus MRSA 4761 [6] = assay: microbe, parasite or virus in culture; details: Staphylococcus aureus, 24 h
S. aureus MRSA 5159 [7] = assay: microbe, parasite or virus in culture; details: Staphylococcus aureus, 24 h
S. aureus MRSA 3-359 [8] = assay: microbe, parasite or virus in culture; details: Staphylococcus aureus, 24 h
S. aureus MRSA 2-122 [9] = assay: microbe, parasite or virus in culture; details: Staphylococcus aureus, 24 h
S. aureus MRSA 1630 [10] = assay: microbe, parasite or virus in culture; details: Staphylococcus aureus, 24 h
S. aureus MRSA 1870 [11] = assay: microbe, parasite or virus in culture; details: Staphylococcus aureus, 24 h
S. aureus MRSA 3511 [12] = assay: microbe, parasite or virus in culture; details: Staphylococcus aureus, 24 h
S. aureus MRSA 5156 [13] = assay: microbe, parasite or virus in culture; details: Staphylococcus aureus, 24 h
S. aureus MRSA 3518 [14] = assay: microbe, parasite or virus in culture; details: Staphylococcus aureus, 24 h
S. aureus MRSA 3126 [15] = details: 24 hours at 37° C.
S. aureus MRSA 0027 [16] = details: 24 hours at 37° C.
S. aureus MRSA 5157 [17] = details: 24 hours at 37° C.
S. aureus MRSA 1635 [18] = details: 24 hours at 37° C.
S. aureus MRSA 4761 [19] = details: 24 hours at 37° C.
S. aureus MRSA 5159 [20] = details: 24 hours at 37° C.
S. aureus MRSA 3-359 [21] = details: 24 hours at 37° C.
S. aureus MRSA 2-122 [22] = details: 24 hours at 37° C.
S. aureus MRSA 1630 [23] = details: 24 hours at 37° C.
S. aureus MRSA 1870 [24] = details: 24 hours at 37° C.
S. aureus MRSA 3511 [25] = details: 24 hours at 37° C.
S. aureus MRSA 5156 [26] = details: 24 hours at 37° C.
S. aureus MRSA 3518 [27] = details: 24 hours at 37° C.
S. aureus [28] = details: 24 hours at 37° C.

CC[C@H]1OC(=O)[C@H](C)[C@@H](O[C@H]2C[C@@](C)(OC)[C@@H](O)[C@H](C)O2)[C@H](C)[C@@H](O[C@@H]2O[C@H](C)C[C@H](N(C)C)[C@H]2O)[C@](C)(O)C[C@@H](C)C(=O)[C@H](C)[C@@H](O)[C@]1(C)O [Erythromycin, erythromycin]
MIC (S. aureus [1]): 1 µM (≈ 0.734 µg/mL) | MIC (S. aureus MRSA 3126 [2]): 128 µM (≈ 93.9 µg/mL) | MIC (S. aureus MRSA 0027 [3]): > 256 µM | MIC (S. aureus MRSA 5157 [4]): 16 µM (≈ 11.7 µg/mL) | MIC (S. aureus MRSA 1635 [5]): > 256 µM | MIC (S. aureus MRSA 4761 [6]): > 256 µM | MIC (S. aureus MRSA 5159 [7]): 16 µM (≈ 11.7 µg/mL) | MIC (S. aureus MRSA 3-359 [8]): > 256 µM | MIC (S. aureus MRSA 2-122 [9]): > 256 µM | MIC (S. aureus MRSA 1630 [10]): > 256 µM | MIC (S. aureus MRSA 1870 [11]): > 256 µM | MIC (S. aureus MRSA 3511 [12]): > 256 µM | MIC (S. aureus MRSA 5156 [13]): > 256 µM | MIC (S. aureus MRSA 3518 [14]): > 256 µM

CC[C@H](C)[C@H](NC(=O)CN)C(=O)NCC(=O)N[C@@H](C)C(=O)N[C@H](C(=O)N[C@@H](CC(C)C)C(=O)N[C@@H](CCCCN)C(=O)N[C@H](C(=O)N[C@@H](CC(C)C)C(=O)N[C@H](C(=O)N[C@H](C(=O)NCC(=O)N[C@@H](CC(C)C)C(=O)N1CCC[C@H]1C(=O)N[C@@H](C)C(=O)N[C@@H](CC(C)C)C(=O)N[C@H](C(=O)N[C@@H](CO)C(=O)N[C@@H](Cc1c[nH]c2ccccc12)C(=O)N[C@H](C(=O)N[C@@H](CCCCN)C(=O)N[C@@H](CCCNC(=N)N)C(=O)N[C@@H](CCCCN)C(=O)N[C@@H](CCCNC(=N)N)C(=O)N[C@@H](CCC(N)=O)C(=O)N[C@@H](CCC(N)=O)C(N)=O)[C@@H](C)CC)[C@@H](C)CC)[C@@H](C)O)[C@@H](C)O)C(C)C)C(C)C [Melittin, melittin]
MIC (S. aureus MRSA 3126 [15]): 2 µM (≈ 5.69 µg/mL) | MIC (S. aureus MRSA 0027 [16]): 2 µM (≈ 5.69 µg/mL) | MIC (S. aureus MRSA 5157 [17]): 2 µM (≈ 5.69 µg/mL) | MIC (S. aureus MRSA 1635 [18]): 2 µM (≈ 5.69 µg/mL) | MIC (S. aureus MRSA 4761 [19]): 4 µM (≈ 11.4 µg/mL) | MIC (S. aureus MRSA 5159 [20]): 8 µM (≈ 22.8 µg/mL) | MIC (S. aureus MRSA 3-359 [21]): 4 µM (≈ 11.4 µg/mL) | MIC (S. aureus MRSA 2-122 [22]): 4 µM (≈ 11.4 µg/mL) | MIC (S. aureus MRSA 1630 [23]): 4 µM (≈ 11.4 µg/mL) | MIC (S. aureus MRSA 1870 [24]): 4 µM (≈ 11.4 µg/mL) | MIC (S. aureus MRSA 3511 [25]): 4 µM (≈ 11.4 µg/mL) | MIC (S. aureus MRSA 5156 [26]): 4 µM (≈ 11.4 µg/mL) | MIC (S. aureus MRSA 3518 [27]): 4 µM (≈ 11.4 µg/mL)

gentamycin
MIC (S. aureus [28]): 1 µM | MIC (S. aureus MRSA 3126 [15]): 32 µM | MIC (S. aureus MRSA 0027 [16]): 64 µM | MIC (S. aureus MRSA 5157 [17]): 16 µM | MIC (S. aureus MRSA 1635 [18]): >256 µM | MIC (S. aureus MRSA 4761 [19]): 32 µM | MIC (S. aureus MRSA 5159 [20]): 16 µM | MIC (S. aureus MRSA 3-359 [21]): 64 µM | MIC (S. aureus MRSA 2-122 [22]): 128 µM | MIC (S. aureus MRSA 1630 [23]): 64 µM | MIC (S. aureus MRSA 1870 [24]): 16 µM | MIC (S. aureus MRSA 3511 [25]): >256 µM | MIC (S. aureus MRSA 5156 [26]): >256 µM | MIC (S. aureus MRSA 3518 [27]): >256 µM
